Test [1] has as its system phosphorylated AKT Ser473 (pAKT S473), mTORC2 activity, PC3 cells. Put plainly: mTOR target engagement assay, immunofluorescent cell-based, pAKT S473 readout (mTORC2 activity). Put shortly:
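After blocking, cells were stained overnight at 4 °C with anti-pAKT S473 antibody, then a fluorescent secondary; inhibition was read as reduced fluorescence intensity.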

In test [2] the test system is phosphorylated 4E-BP1 Thr37/46 (p4E-BP1 Thr37/46), mTORC1 activity, PC3 cells. Put plainly: mTOR target engagement assay, immunofluorescent cell-based, p4E-BP1 Thr37/46 readout (mTORC1 activity). The following applies: read-out: p4E-BP1 Thr37/46 IC50. Put shortly:
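Read-out is fluorescence intensity of immunostained p4E-BP1 Thr37/46 in fixed PC3 cells, fitted to a logistic curve for IC50 with DMSO-only wells as top. Cells had been exposed to serial compound dilutions for ninety minutes at 37° C in 5% FBS medium with 0.25% DMSO.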

Setting [3] is: Homo sapiens, PC-3, Table 3-1, PC3 cells.
Setting [4] is: Homo sapiens, PC-3, PC3 cells, compound treatment ninety minutes at 37° C.
Setting [5] is: Homo sapiens, PC-3, Table 7-8, PC3 cells.

pIC50: −log10 of the molar value. Where two headings read alike, the source gives them in different places.

Among the data in US9227971B2, “Pyrazolo[1,5-a]pyrimidine compounds as mTOR inhibitors” (Merck Sharp & Dohme Corp., priority 2010, dated 2016) are IC50 values, retold here.

In the case of `CS(=O)(=O)c1c([C@@H]2C[C@H]3CC[C@@H](C2)N3C(=O)c2nnc[nH]2)nc2c(-c3cnn(-c4ccc(F)cc4)c3)cnn2c1N` [Compound 3.88, ((1R,3s,5S)-3-(7-amino-3-(1-(4-fluorophenyl)-1H-pyrazol-4-yl)-6-(methyslulfonyl)pyrazolo[1,5-a]pyrimidin-5-yl)-8-azabicyclo[3.2.1]octan-8-yl)(4H-1,2,4-triazol-3-yl)methanone], the pIC50 in test [1] (setting [3]) was 6.00 to 7.00; in test [2] (setting [3]), 5.00 to 6.00.

`CS(=O)(=O)c1c([C@@H]2C[C@H]3CC[C@@H](C2)N3C(=O)c2nnc[nH]2)nc2c(-c3cnc(-c4ccccc4)c(O)c3)cnn2c1N` [Compound 3.22, ((1R,3s,5S)-3-(7-amino-3-(5-hydroxy-6-phenylpyridin-3-yl)-6-(methylsulfonyl)pyrazolo[1,5-a]pyrimidin-5-yl)-8-azabicyclo[3.2.1]octan-8-yl)(4H-1,2,4-triazol-3-yl)methanone]: the pIC50 is 6.00 to 7.00 in test [1] (setting [3]) and 5.00 to 6.00 in test [2] (setting [3]).

As for `CS(=O)(=O)c1c([C@@H]2C[C@H]3CC[C@@H](C2)N3C(=O)c2nnc[nH]2)nc2c(-c3cnc4ccc(F)cc4c3)cnn2c1N` [Compound 3.25], the pIC50 in test [1] (setting [3]) and in test [2] (setting [3]) was 7.00 to 9.00 throughout.

With `Cc1cc(-c2cnn3c(N)c(S(C)(=O)=O)c([C@@H]4C[C@H]5CC[C@@H](C4)N5C(=O)c4nnc[nH]4)nc23)cnc1C(C)(C)O` [Compound 3.157, ((1R,3s,5S)-3-(7-amino-3-(6-(2-hydroxypropan-2-yl)-5-methylpyridin-3-yl)-6-(methylsulfonyl)pyrazolo[1,5-a]pyrimidin-5-yl)-8-azabicyclo[3.2.1]octan-8-yl)(4H-1,2,4-triazol-3-yl)methanone], the pIC50 in test [1] (setting [3]) and in test [2] (setting [3]) was 7.00 to 9.00 each time.

`COc1ccc(-c2ccc(-c3cnn4c(N)c(C(C)=O)c([C@@H]5C[C@H]6CC[C@@H](C5)N6C(=O)c5nnc(N)[nH]5)nc34)cn2)cc1F` [Compound 1.1.144, 1-(7-amino-5-((1R,3s,5S)-8-(5-amino-4H-1,2,4-triazole-3-carbonyl)-8-azabicyclo[3.2.1]octan-3-yl)-3-(6-(3-fluoro-4-methoxyphenyl)pyridin-3-yl)pyrazolo[1,5-a]pyrimidin-6-yl)ethanone]: the pIC50 in test [1] (setting [4]) and in test [2] (setting [4]) was 7.00 to 9.00 each time.

As to `CC(=O)c1c([C@@H]2C[C@H]3CC[C@@H](C2)N3C(=O)c2nnc[nH]2)nc2c(-c3cnc(-c4ccccc4)c(O)c3)cnn2c1N` [Compound 1.1.31, 1-(5-((1R,3s,5S)-8-(4H-1,2,4-triazole-3-carbonyl)-8-azabicyclo[3.2.1]octan-3-yl)-7-amino-3-(5-hydroxy-6-phenylpyridin-3-yl)pyrazolo[1,5-a]pyrimidin-6-yl)ethanone], the pIC50 in test [1] (setting [4]) and in test [2] (setting [4]) was 5.00 to 6.00 in each case.

On to “1-((1R,3s,5S)-3-(6-acetyl-7-amino-3-(6-(cyclopropylamino)pyridin-3-yl)pyrazolo[1,5-a]pyrimidin-5-yl)-8-azabicyclo[3.2.1]octan-8-yl)-2-hydroxyethanone [Compound 8.50]”, for which the pIC50 in test [1] (PC3 cells) and in test [2] (PC3 cells) was 6.00 to 7.00 throughout.

For `CC(=O)c1c([C@@H]2C[C@H]3CC[C@@H](C2)N3C(=O)c2nnc[nH]2)nc2c(-c3cnc(-c4ccccc4)nc3)cnn2c1N` [Compound 1.1.179, 1-(5-((1R,3s,5S)-8-(4H-1,2,4-triazole-3-carbonyl)-8-azabicyclo[3.2.1]octan-3-yl)-7-amino-3-(2-phenylpyrimidin-5-yl)pyrazolo[1,5-a]pyrimidin-6-yl)ethanone], the pIC50 in test [1] (setting [4]) and in test [2] (setting [4]) was 7.00 to 9.00 each time.

For the compound `CS(=O)(=O)c1c([C@@H]2C[C@H]3CC[C@@H](C2)N3C(=O)c2nnc[nH]2)nc2c(-c3ccc(C4(O)CCCC4)nc3)cnn2c1N` [Compound 7.46, ((1R,3s,5S)-3-(7-amino-3-(6-(1-hydroxycyclopentyl)pyridin-3-yl)-6-(methylsulfonyl)pyrazolo [1,5-a]pyrimidin-5-yl)-8-azabicyclo[3.2.1]octan-8-yl)(4H-1,2,4-triazol-3-yl)methanone], the pIC50 in test [1] (setting [5]) and in test [2] (setting [5]) was 7.00 to 9.00 throughout.

For `CC(=O)c1c(C2CC3CS(=O)(=O)CC(C2)N3C(=O)c2nc[nH]n2)nc2c(-c3ccc(-c4ccccc4)nc3)cnn2c1N` (stereo not drawn) [Compound 8.38, endo/exo-7-[6-acetyl-7-amino-3-(6-phenyl-3-pyridinyl)pyrazolo[1,5-a]pyrimidin-5-yl]-9-(4h-1,2,4-triazol-3-ylcarbonyl)-3-thia-9-azabicyclo[3.3.1]nonane, 3,3-dioxide], the pIC50 in test [1] (Homo sapiens, PC-3, PC3 cells) was 6.00 to 7.00; in test [2] (Homo sapiens, PC-3, PC3 cells), 6.00 to 7.00.

For `CC(=O)c1c([C@@H]2C[C@H]3CC[C@@H](C2)N3C(=O)c2cc(N)n[nH]2)nc2c(-c3ccc(C(N)(C(F)(F)F)C(F)(F)F)nc3)cnn2c1N` [Compound 7.84, 1-(7-amino-3-(6-(2-amino-1,1,1,3,3,3-hexafluoropropan-2-yl)pyridin-3-yl)-5-((1R,3s,5S)-8-(3-amino-1H-pyrazole-5-carbonyl)-8-azabicyclo[3.2.1]octan-3-yl)pyrazolo[1,5-a]pyrimidin-6-yl)ethanone], the pIC50 in test [1] (Homo sapiens, PC-3, PC3 cells) is 5.00 to 6.00; in test [2] (Homo sapiens, PC-3, PC3 cells) it was 5.00 to 6.00.

On to `CC(=O)c1c([C@@H]2C[C@H]3CC[C@@H](C2)N3C(=O)c2nnc(C)[nH]2)nc2c(-c3ccc(C4(O)CCC4)nc3)cnn2c1N` [Compound 7.17, 1-(7-amino-3-(6-(1-hydroxycyclobutyl)pyridin-3-yl)-5-((1R,3s,5S)-8-(3-methyl-1H-1,2,4-triazole-5-carbonyl)-8-azabicyclo[3.2.1]octan-3-yl)pyrazolo[1,5-a]pyrimidin-6-yl)ethanone], for which the pIC50 in test [1] (setting [4]) and in test [2] (setting [4]) was 6.00 to 7.00 each time.

Regarding `CN1CCN(c2nnc(C(=O)N3C4CCC3CC(c3nc5c(-c6ccc(-c7ccccc7)nc6)cnn5c(N)c3C3CC3)C4)[nH]2)CC1` [Compound 8.102, ((1R,3s,5S)-3-(7-amino-6-cyclopropyl-3-(6-phenylpyridin-3-yl)pyrazolo[1,5-a]pyrimidin-5-yl)-8-azabicyclo[3.2.1]octan-8-yl)(5-(4-methylpiperazin-1-yl)-4H-1,2,4-triazol-3-yl)methanone], the pIC50 in test [1] (Homo sapiens, PC-3, PC3 cells) was 5.00 to 6.00; in test [2] (Homo sapiens, PC-3, PC3 cells) it was 5.00 to 6.00.

With `COc1cc(F)cc2cc(-c3cnn4c(N)c(C(C)=O)c([C@@H]5C[C@H]6CC[C@@H](C5)N6C(=O)c5nnc[nH]5)nc34)cnc12` [Compound 1.1.182, 1-(5-((1R,3r,5S)-8-(4H-1,2,4-triazole-3-carbonyl)-8-azabicyclo[3.2.1]octan-3-yl)-7-amino-3-(6-fluoro-8-methoxyquinolin-3-yl)pyrazolo[1,5-a]pyrimidin-6-yl)ethanone], the pIC50 in test [1] (setting [4]) and in test [2] (setting [4]) was 7.00 to 9.00 in each case.

On to `CS(=O)(=O)c1c([C@@H]2C[C@H]3CC[C@@H](C2)N3C(=O)c2ccnc(N)n2)nc2c(-c3ccc(-c4ccccc4)nc3)cnn2c1N` [Compound 3.143, ((1R,3s,5S)-3-(7-amino-6-(methylsulfonyl)-3-(6-phenylpyridin-3-yl)pyrazolo[1,5-a]pyrimidin-5-yl)-8-azabicyclo[3.2.1]octan-8-yl)(2-aminopyrimidin-4-yl)methanone], for which the pIC50 in test [1] (setting [3]) and in test [2] (setting [3]) was 6.00 to 7.00 each time.

With `CS(=O)(=O)c1c(C2CC3COCC(C2)N3C(=O)c2nc[nH]n2)nc2c(-c3ccc(-c4ccccc4)nc3)cnn2c1N` (single isomer, unassigned) [Compound 8.31, (7-(7-amino-6-(methylsulfonyl)-3-(6-phenylpyridin-3-yl)pyrazolo[1,5-a]pyrimidin-5-yl)-3-oxa-9-azabicyclo[3.3.1]nonan-9-yl)(1H-1,2,4-triazol-3-yl)methanone], the pIC50 in test [1] (PC3 cells) and in test [2] (PC3 cells) was 6.00 to 7.00 each time.

With `CCOC(=O)Nc1ccc(-c2cnn3c(N)c(C(C)=O)c([C@@H]4C[C@H]5CC[C@@H](C4)N5C(=O)c4ncn[nH]4)nc23)cn1` [Compound 8.78, ethyl 5-(5-((1R,3s,5S)-8-(1H-1,2,4-triazole-5-carbonyl)-8-azabicyclo[3.2.1]octan-3-yl)-6-acetyl-7-aminopyrazolo[1,5-a]pyrimidin-3-yl)pyridin-2-ylcarbamate], the pIC50 was 7.00 to 9.00 in test [1] (Homo sapiens, PC-3, PC3 cells) and 7.00 to 9.00 in test [2] (Homo sapiens, PC-3, PC3 cells).

On to `Nc1c(C2CC2)c([C@@H]2C[C@H]3CC[C@@H](C2)N3C(=O)CO)nc2c(-c3ccc(-c4cccc(F)c4)nc3)cnn12` [Compound 4.22, 1-((1R,3s,5S)-3-(7-amino-6-cyclopropyl-3-(6-(3-fluorophenyl)pyridin-3-yl)pyrazolo[1,5-a]pyrimidin-5-yl)-8-azabicyclo[3.2.1]octan-8-yl)-2-hydroxyethanone], for which the pIC50 in test [1] (setting [4]) and in test [2] (setting [4]) was 6.00 to 7.00 throughout.

Turning to `CC(=O)c1c([C@@H]2C[C@H]3CC[C@@H](C2)N3C(=O)c2nnc[nH]2)nc2c(-c3ccc(C)nc3)cnn2c1N` [Compound 1.1.79, 1-(5-((1R,3s,5S)-8-(4H-1,2,4-triazole-3-carbonyl)-8-azabicyclo[3.2.1]octan-3-yl)-7-amino-3-(6-methylpyridin-3-yl)pyrazolo[1,5-a]pyrimidin-6-yl)ethanone], the pIC50 in test [1] (setting [4]) and in test [2] (setting [4]) was 7.00 to 9.00 throughout.
